Data reported in patent US8691865B2 (AbbVie Inc., priority 2008, dated 2014).

target: human Cav2.2 (Homo sapiens, UniProt Q00975); assay: Assessment of calcium channel activity using FLIPR (Ca2+ influx in IMR32 cells); assay type: cell-based; details: not given
Method in brief: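 Human neuroblastoma IMR32 cells were seeded at 1−1.2×10^5 cells/well and cultured 48 h at 37 °C before FLIPR calcium influx measurement. Percent inhibition at each concentration was calculated against the no-inhibitor signal, and IC50 came from sigmoidal dose-response fits.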

human Cav2.2, sequence (Q00975 whole entry): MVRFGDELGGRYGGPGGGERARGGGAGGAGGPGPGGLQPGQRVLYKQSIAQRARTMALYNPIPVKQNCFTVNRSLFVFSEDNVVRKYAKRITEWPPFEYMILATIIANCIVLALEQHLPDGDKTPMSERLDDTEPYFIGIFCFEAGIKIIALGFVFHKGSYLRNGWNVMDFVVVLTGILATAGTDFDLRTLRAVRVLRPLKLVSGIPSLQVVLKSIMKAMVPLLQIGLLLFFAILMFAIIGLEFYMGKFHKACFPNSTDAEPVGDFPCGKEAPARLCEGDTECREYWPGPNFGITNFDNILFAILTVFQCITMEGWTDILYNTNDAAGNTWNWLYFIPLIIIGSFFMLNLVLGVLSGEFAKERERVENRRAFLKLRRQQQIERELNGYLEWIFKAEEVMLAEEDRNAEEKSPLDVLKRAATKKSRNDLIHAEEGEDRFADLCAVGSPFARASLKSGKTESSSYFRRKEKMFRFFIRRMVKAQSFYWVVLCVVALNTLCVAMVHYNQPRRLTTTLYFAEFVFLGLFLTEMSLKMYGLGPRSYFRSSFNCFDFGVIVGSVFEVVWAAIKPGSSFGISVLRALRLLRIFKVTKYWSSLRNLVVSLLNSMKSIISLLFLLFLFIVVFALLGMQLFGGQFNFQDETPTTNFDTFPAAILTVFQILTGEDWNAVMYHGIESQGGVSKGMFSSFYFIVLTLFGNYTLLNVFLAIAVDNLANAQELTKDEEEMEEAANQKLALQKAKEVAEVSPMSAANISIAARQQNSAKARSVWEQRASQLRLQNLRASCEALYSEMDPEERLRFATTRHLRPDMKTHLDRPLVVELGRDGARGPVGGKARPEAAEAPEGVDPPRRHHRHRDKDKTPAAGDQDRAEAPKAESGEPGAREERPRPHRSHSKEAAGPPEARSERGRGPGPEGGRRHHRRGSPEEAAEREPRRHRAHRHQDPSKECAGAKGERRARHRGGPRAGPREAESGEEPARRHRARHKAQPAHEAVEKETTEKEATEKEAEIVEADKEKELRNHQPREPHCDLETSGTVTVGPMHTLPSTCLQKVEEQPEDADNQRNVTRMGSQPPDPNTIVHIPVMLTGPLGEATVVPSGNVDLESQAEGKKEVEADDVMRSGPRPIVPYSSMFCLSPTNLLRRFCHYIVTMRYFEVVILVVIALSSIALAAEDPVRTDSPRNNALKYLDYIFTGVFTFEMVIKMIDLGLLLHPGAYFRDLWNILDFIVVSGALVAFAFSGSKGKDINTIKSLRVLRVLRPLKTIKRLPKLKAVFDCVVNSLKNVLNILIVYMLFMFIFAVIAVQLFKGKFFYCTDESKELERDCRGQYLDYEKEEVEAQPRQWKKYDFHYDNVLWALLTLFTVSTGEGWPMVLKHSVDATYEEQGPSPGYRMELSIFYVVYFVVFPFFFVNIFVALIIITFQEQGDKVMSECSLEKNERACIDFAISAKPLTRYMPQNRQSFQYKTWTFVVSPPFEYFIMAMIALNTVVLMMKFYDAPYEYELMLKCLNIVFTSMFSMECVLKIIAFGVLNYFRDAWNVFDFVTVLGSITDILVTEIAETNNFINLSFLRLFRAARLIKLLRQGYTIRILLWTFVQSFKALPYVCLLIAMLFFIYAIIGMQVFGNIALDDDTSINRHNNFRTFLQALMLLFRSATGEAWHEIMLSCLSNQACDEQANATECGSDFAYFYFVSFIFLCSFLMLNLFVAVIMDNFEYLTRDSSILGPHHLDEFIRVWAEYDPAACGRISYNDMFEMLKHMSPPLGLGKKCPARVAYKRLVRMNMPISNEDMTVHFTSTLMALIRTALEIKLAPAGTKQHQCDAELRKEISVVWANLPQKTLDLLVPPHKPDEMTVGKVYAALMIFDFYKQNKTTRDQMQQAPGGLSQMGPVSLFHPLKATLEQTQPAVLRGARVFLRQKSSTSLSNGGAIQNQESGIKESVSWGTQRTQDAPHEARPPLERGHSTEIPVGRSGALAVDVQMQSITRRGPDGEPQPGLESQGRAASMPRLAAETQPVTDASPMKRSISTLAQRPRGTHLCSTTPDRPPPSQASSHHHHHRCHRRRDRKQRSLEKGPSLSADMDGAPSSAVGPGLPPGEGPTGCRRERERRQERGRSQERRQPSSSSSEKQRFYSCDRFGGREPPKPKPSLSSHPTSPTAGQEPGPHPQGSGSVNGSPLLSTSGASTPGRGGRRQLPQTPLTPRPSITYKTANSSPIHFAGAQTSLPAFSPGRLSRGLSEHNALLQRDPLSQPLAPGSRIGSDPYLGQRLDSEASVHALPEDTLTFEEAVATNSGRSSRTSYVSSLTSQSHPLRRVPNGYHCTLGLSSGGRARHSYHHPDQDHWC
human Cav2.2, sequence (P54289 25-956 partner limits assumed): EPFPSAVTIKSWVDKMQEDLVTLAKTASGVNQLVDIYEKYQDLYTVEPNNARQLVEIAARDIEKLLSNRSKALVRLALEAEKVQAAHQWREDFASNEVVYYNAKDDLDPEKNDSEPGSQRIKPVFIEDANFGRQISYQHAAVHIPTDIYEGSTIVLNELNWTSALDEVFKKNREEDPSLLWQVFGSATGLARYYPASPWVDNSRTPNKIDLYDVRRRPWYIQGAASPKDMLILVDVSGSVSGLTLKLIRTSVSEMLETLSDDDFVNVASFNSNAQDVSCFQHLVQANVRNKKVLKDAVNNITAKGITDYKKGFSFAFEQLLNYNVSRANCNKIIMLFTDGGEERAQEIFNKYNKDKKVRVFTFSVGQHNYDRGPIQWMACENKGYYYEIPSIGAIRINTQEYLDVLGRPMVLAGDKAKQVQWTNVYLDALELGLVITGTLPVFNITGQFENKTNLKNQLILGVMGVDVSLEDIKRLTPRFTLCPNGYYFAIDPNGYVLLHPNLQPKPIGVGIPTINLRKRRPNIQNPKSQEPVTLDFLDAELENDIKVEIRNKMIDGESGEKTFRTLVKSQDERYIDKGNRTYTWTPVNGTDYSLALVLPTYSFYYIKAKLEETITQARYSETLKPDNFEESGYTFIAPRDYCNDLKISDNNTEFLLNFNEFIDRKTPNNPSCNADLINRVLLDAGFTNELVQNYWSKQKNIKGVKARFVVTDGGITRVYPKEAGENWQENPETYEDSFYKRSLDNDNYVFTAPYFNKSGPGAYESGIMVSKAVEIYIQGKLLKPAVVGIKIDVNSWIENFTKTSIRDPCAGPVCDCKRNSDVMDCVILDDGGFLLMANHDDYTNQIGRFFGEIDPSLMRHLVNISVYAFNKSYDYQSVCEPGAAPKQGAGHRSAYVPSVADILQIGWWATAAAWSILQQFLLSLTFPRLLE
human Cav2.2, sequence (P54289 957-1103 partner limits assumed): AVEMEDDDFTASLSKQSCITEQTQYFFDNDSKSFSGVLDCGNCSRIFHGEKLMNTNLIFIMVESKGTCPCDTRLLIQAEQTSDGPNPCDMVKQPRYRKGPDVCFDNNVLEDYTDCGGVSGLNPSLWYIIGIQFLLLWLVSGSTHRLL
human Cav2.2, sequence (P54284 whole entry partner): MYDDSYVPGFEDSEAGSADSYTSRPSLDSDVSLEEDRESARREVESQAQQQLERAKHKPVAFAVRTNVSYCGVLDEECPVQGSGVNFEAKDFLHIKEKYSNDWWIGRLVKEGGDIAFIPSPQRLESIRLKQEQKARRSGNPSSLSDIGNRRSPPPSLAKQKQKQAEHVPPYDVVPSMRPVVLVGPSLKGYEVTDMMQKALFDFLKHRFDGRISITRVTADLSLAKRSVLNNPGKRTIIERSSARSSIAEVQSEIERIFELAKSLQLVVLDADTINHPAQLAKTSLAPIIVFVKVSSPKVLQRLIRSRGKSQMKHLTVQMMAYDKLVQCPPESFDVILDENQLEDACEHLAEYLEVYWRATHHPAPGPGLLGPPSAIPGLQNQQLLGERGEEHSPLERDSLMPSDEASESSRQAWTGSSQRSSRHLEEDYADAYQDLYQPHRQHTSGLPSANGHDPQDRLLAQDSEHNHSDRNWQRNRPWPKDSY

Point of comparison: O=C(N[C@H]1CC[C@@H]2CN(c3cccc(C(F)(F)F)n3)C[C@@H]21)c1cccc(O)c1 [Example 577, 3-hydroxy-N-{(3aR,4S,6aS)-2-[6-(trifluoromethyl)pyridin-2-yl]octahydrocyclopenta[c]pyrrol-4-yl}benzamide], IC50 2.06 µM. Against it:
- CN[C@@H](C)C(=O)N[C@H]1CC[C@@H]2CN(c3ccc(C(F)(F)F)cc3)C[C@@H]21 [Example 753, N^2-methyl-N-{(3aR,4S,6aS)-2-[4-(trifluoromethyl)phenyl]octahydrocyclopenta[c]pyrrol-4-yl}-L-alaninamide] — higher, > 9.5 µM
- COc1ccc(-c2n[nH]cc2CN[C@H]2CC[C@@H]3CN(c4cccc(C(F)(F)F)n4)C[C@@H]32)cc1 [Example 681, (3aR,4S,6aS)-N-{[3-(4-methoxyphenyl)-1H-pyrazol-4-yl]methyl}-2-[6-(trifluoromethyl)pyridin-2-yl]octahydrocyclopenta[c]pyrrol-4-amine] — 2.1-fold lower, 0.98 µM
- Fc1ccc(-c2n[nH]cc2CN[C@H]2CC[C@@H]3CN(c4cccc(C(F)(F)F)n4)C[C@@H]32)cc1 [Example 672, (3aR,4S,6aS)-N-{[3-(4-fluorophenyl)-1H-pyrazol-4-yl]methyl}-2-[6-(trifluoromethyl)pyridin-2-yl]octahydrocyclopenta[c]pyrrol-4-amine] — within 1.5-fold, 1.65 µM
- O=C(N[C@H]1CC[C@@H]2CN(c3cccc(C(F)(F)F)n3)C[C@@H]21)[C@@H]1CC(F)(F)CN1 [Example 595, 4,4-difluoro-N-{(3aR,4S,6aS)-2-[6-(trifluoromethyl)pyridin-2-yl]octahydrocyclopenta[c]pyrrol-4-yl}-L-prolinamide] — within 1.5-fold, 2.18 µM
- CC(C)C[C@@H](C(=O)N[C@@H]1CC[C@H]2CN(S(C)(=O)=O)C[C@H]21)N1CCCC1 [Example 346, (2S)-4-methyl-N-[(3aS,4R,6aR)-2-(methylsulfonyl)octahydrocyclopenta[c]pyrrol-4-yl]-2-pyrrolidin-1-ylpentanamide] — higher, > 30 µM
- CCC[C@H](NC(=O)OC(C)C)C(=O)N[C@H]1CC[C@@H]2CN(c3ccc(C(F)(F)F)cn3)C[C@@H]21 [Example 263, isopropyl(S)-1-oxo-1-((3aR,4S,6aS)-2-(5-(trifluoromethyl)pyridin-2-yl)octahydrocyclopenta[c]pyrrol-4-ylamino)pentan-2-ylcarbamate] — higher, > 30 µM
- O=S(=O)(N[C@H]1CC[C@@H]2CN(c3cccc(C(F)(F)F)n3)C[C@@H]21)c1ccccc1 [Example 708, N-{(3aR,4S,6aS)-2-[6-(trifluoromethyl)pyridin-2-yl]octahydrocyclopenta[c]pyrrol-4-yl}benzenesulfonamide] — 1.6-fold higher, 3.35 µM
- FC(F)(F)c1cccc(N2C[C@H]3CC[C@H](NCc4c[nH]nc4-c4cccs4)[C@H]3C2)n1 [Example 669, (3aR,4S,6aS)-N-{[3-(2-thienyl)-1H-pyrazol-4-yl]methyl}-2-[6-(trifluoromethyl)pyridin-2-yl]octahydrocyclopenta[c]pyrrol-4-amine] — 2.6-fold lower, 0.8 µM
- O=C(N[C@H]1CC[C@H]2CN(Cc3cccc(F)c3)C[C@H]21)C(C1CCCCC1)C1CCCCC1 [Example 64, 2,2-dicyclohexyl-N-[(3aS,4S,6aR)-2-(3-fluorobenzyl)octahydrocyclopenta[c]pyrrol-4-yl]acetamide] — 2.1-fold lower, 0.99 µM
- Cn1nccc1CN[C@H]1CC[C@@H]2CN(c3cccc(C(F)(F)F)n3)C[C@@H]21 [Example 725, (3aR,4S,6aS)-N-[(1-methyl-1H-pyrazol-5-yl)methyl]-2-[6-(trifluoromethyl)pyridin-2-yl]octahydrocyclopenta[c]pyrrol-4-amine] — 2.2-fold lower, 0.94 µM
- FC(F)(F)c1ccc(-c2nc(CN[C@H]3CC[C@@H]4CN(c5cccc(C(F)(F)F)n5)C[C@@H]43)c[nH]2)cc1 [Example 742, (3aR,4S,6aS)-N-({2-[4-(trifluoromethyl)phenyl]-1H-imidazol-4-yl}methyl)-2-[6-(trifluoromethyl)pyridin-2-yl]octahydrocyclopenta[c]pyrrol-4-amine] — 1.6-fold lower, 1.3 µM
- O=C(N[C@H]1CC[C@@H]2CN(c3cccc(C(F)(F)F)n3)C[C@@H]21)c1ccc2ccccc2n1 [Example 569, N-{(3aR,4S,6aS)-2-[6-(trifluoromethyl)pyridin-2-yl]octahydrocyclopenta[c]pyrrol-4-yl}quinoline-2-carboxamide] — 2.1-fold lower, 0.98 µM
- FC(F)(F)c1cccc(N2C[C@H]3CC[C@H](NCc4ccn[nH]4)[C@H]3C2)n1 [Example 663, (3aR,4S,6aS)-N-(1H-pyrazol-5-ylmethyl)-2-[6-(trifluoromethyl)pyridin-2-yl]octahydrocyclopenta[c]pyrrol-4-amine] — within 1.5-fold, 1.89 µM
- O=C(Nc1ccc(F)cc1)N[C@H]1CC[C@@H]2CN(c3cccc(C(F)(F)F)n3)C[C@@H]21 [Example 709, 1-(4-fluorophenyl)-3-{(3aR,4S,6aS)-2-[6-(trifluoromethyl)pyridin-2-yl]octahydrocyclopenta[c]pyrrol-4-yl}urea] — 3-fold higher, 6.18 µM
- CC(C)C(C(=O)N[C@@H]1CC[C@@H]2CN(Cc3ccccc3)C[C@@H]21)c1ccccc1 (relative stereo) [Example 5, N-[(3aR*,4R*,6aS*)-2-benzyloctahydrocyclopenta[c]pyrrol-4-yl]-3-methyl-2-phenylbutanamide] — within 1.5-fold, 1.46 µM
- CCC[C@H](NC(=O)OC(C)C)C(=O)N[C@H]1CC[C@@H]2CN(S(=O)(=O)c3ccc(C(F)(F)F)cc3)C[C@@H]21 [Example 279, isopropyl(S)-1-oxo-1-((3aR,4S,6aS)-2-(4-(trifluoromethyl)phenylsulfonyl)octahydrocyclopenta[c]pyrrol-4-ylamino)pentan-2-ylcarbamate] — higher, > 16.4 µM
- CCC[C@H](NCC(C)(C)C)C(=O)N[C@@H]1CC[C@H]2CN(S(=O)(=O)c3ccc(C(F)(F)F)cc3)C[C@H]21 [Example 260, N^2-neopentyl-N^1-((3aS,4R,6aR)-2-{[4-(trifluoromethyl)phenyl]sulfonyl}octahydrocyclopenta[c]pyrrol-4-yl)-L-norvalinamide] — 1.9-fold lower, 1.11 µM

same assay, conditions: read-out: IC50 (μM) or percent inhibition (* indicates 3 minute incubation, otherwise 60 minute); IC50; 60 minute pre-incubation with compound; IMR32 cells, 80 mM KCl depolarization

Point of comparison: O=C(N[C@@H]1CC[C@H]2CN(CCC(c3ccc(F)cc3)c3ccc(F)cc3)C[C@H]21)C(C1CCCCC1)C1CCCCC1 [Example 80, N-{(3aS,4R,6aR)-2-[3,3-bis(4-fluorophenyl)propyl]octahydrocyclopenta[c]pyrrol-4-yl}-2,2-dicyclohexylacetamide], IC50 1.67 µM. Against it:
- O=S(=O)(c1cccc(C(F)(F)F)c1)N1C[C@@H]2CC[C@@H](NC(c3ccccc3)c3ccccc3)[C@@H]2C1 [Example 467, (3aS,4R,6aR)-N-benzhydryl-2-{[3-(trifluoromethyl)phenyl]sulfonyl}octahydrocyclopenta[c]pyrrol-4-amine] — 2.1-fold higher, 3.5 µM
- CC(C)C[C@H](NC(=O)NC(C)(C)C)C(=O)N[C@@H]1CC[C@H]2CN(Cc3cccc(C(F)(F)F)c3)C[C@H]21 [Example 180, N^2-[(tert-butylamino)carbonyl]-N^1-{(3aS,4R,6aR)-2-[3-(trifluoromethyl)benzyl]octahydrocyclopenta[c]pyrrol-4-yl}-L-leucinamide] — within 1.5-fold, 1.83 µM
- CC(C)C(C(=O)N[C@H]1CC[C@@H]2CN(Cc3cccc(Cl)c3)C[C@@H]21)c1ccccc1 (stereo partly drawn) [Example 86, N-[(3aR,4S,6aS)-2-(3-chlorobenzyl)octahydrocyclopenta[c]pyrrol-4-yl]-3-methyl-2-phenylbutanamide] — within 1.5-fold, 1.63 µM
- O=C(N[C@@H]1CC[C@H]2CN(Cc3cccc(C(F)(F)F)c3)C[C@H]21)C(O)(C1CCCCC1)C1CCCCC1 [Example 154, 2,2-dicyclohexyl-2-hydroxy-N-{(3aS,4R,6aR)-2-[3-(trifluoromethyl)benzyl]octahydrocyclopenta[c]pyrrol-4-yl}acetamide] — within 1.5-fold, 1.33 µM
- CCC[C@H](NCC(C)(C)C)C(=O)N[C@@H]1CC[C@H]2CN(Cc3ccccc3)C[C@H]21 [Example 246, N^1-[(3aS,4R,6aR)-2-benzyloctahydrocyclopenta[c]pyrrol-4-yl]-N^2-neopentyl-L-norvalinamide] — 5-fold higher, 8.38 µM
- CC(C)C[C@@H](C(=O)N[C@@H]1CC[C@H]2CN(Cc3cccc(C(F)(F)F)c3)C[C@H]21)N(C)S(C)(=O)=O [Example 169, N^2-methyl-N^2-(methylsulfonyl)-N^1-{(3aS,4R,6aR)-2-[3-(trifluoromethyl)benzyl]octahydrocyclopenta[c]pyrrol-4-yl}-L-leucinamide] — 1.8-fold lower, 0.92 µM
- CC(C)C[C@H](N)C(=O)N[C@@H]1CC[C@H]2CN(Cc3cccc(C(F)(F)F)c3)C[C@H]21 (relative stereo) [Example 161, N^1-{(3aS*,4R*,6aR*)-2-[3-(trifluoromethyl)benzyl]octahydrocyclopenta[c]pyrrol-4-yl}-L-leucinamide] — 2.3-fold higher, 3.89 µM
- CCC[C@@H](C(=O)N[C@@H]1CC[C@@H]2CN(S(=O)(=O)c3ccc(C(F)(F)F)cc3)C[C@@H]21)N(C)C(=O)OC(C)(C)C [Example 328, tert-butyl methyl((S)-1-oxo-1-((3aR,4R,6aS)-2-(4-(trifluoromethyl)phenylsulfonyl)octahydrocyclopenta[c]pyrrol-4-ylamino)pentan-2-yl)carbamate] — within 1.5-fold, 1.39 µM
- O=S(=O)(N[C@H]1CC[C@H]2CN(Cc3cccc(C(F)(F)F)c3)C[C@H]21)c1cccc(C(F)(F)F)c1 (relative stereo) [Example 185, 3-(trifluoromethyl)-N-{(3aS*,4S*,6aR*)-2-[3-(trifluoromethyl)benzyl]octahydrocyclopenta[c]pyrrol-4-yl}benzenesulfonamide] — 1.8-fold lower, 0.91 µM
- CC(C)C(C(=O)N[C@@H]1CC[C@H]2CN(Cc3ccccc3)C[C@H]21)c1ccccc1 (stereo partly drawn) [Example 18, N-[(3aS,4R,6aR)-2-benzyloctahydrocyclopenta[c]pyrrol-4-yl]-3-methyl-2-phenylbutanamide] — 1.6-fold higher, 2.68 µM
- CC(C)C[C@@H](C(=O)N[C@@H]1CC[C@H]2CN(Cc3ccccc3)C[C@H]21)N(C)S(C)(=O)=O [Example 168, N^1-[(3aS,4R,6aR)-2-benzyloctahydrocyclopenta[c]pyrrol-4-yl]-N^2-methyl-N^2-(methylsulfonyl)-L-leucinamide] — 7.7-fold higher, 12.9 µM
